Test results from PubChem BioAssay AID248 (DTP/NCI, 2004).
Where “and” joins values, the source holds several entries; their conditions need not be identical. Equal entries are not always repeated. Toxic doses and inconclusive results are not listed. Cut-off read from the data, not from the text of the source: active = T/C of 150% or more; inactive = T/C below 125%.

Tested on: L1210 leukemia ip in BDF1 mice, survival T/C
Experiment: NCI In Vivo Anticancer Drug Screen. Data for tumor model L1210 Leukemia (intraperitoneal) in B6D2F1 (BDF1) mice
Settings: endpoint: mean survival time, higher = longer survival
In short: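 Tumor was transplanted into mice, which were then dosed with test compound or vehicle alone. Survival was recorded for each group, and the treated figure was expressed relative to the control figure.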

[1] = dose: 50.0 mg/kg/injection, schedule: Q01DX009 (ip), vehicle: saline with Tween-80
[2] = dose: 100.0 mg/kg/injection, schedule: Q01DX001 (ip), vehicle: saline with Tween-80
[3] = dose: 100.0 mg/kg/injection, schedule: Q04DX003 (ip), vehicle: saline with Tween-80
[4] = dose: 200.0 mg/kg/injection, schedule: Q01DX001 (ip), vehicle: saline with Tween-80
[5] = dose: 200.0 mg/kg/injection, schedule: Q04DX003 (ip), vehicle: saline with Tween-80
[6] = dose: 400.0 mg/kg/injection, schedule: Q01DX001 (ip), vehicle: saline with Tween-80
[7] = dose: 400.0 mg/kg/injection, schedule: Q01DX009 (ip), vehicle: saline with Tween-80
[8] = dose: 400.0 mg/kg/injection, schedule: Q04DX003 (ip), vehicle: saline with Tween-80
[9] = dose: 100.0 mg/kg/injection, schedule: Q04DX003 (ip), vehicle: other
[10] = dose: 200.0 mg/kg/injection, schedule: Q04DX003 (ip), vehicle: other
[11] = dose: 400.0 mg/kg/injection, schedule: Q04DX003 (ip), vehicle: other
[12] = dose: 100.0 mg/kg/injection, schedule: Q01DX009 (ip), vehicle: saline
[13] = dose: 100.0 mg/kg/injection, schedule: Q04DX003 (ip), vehicle: saline
[14] = dose: 200.0 mg/kg/injection, schedule: Q04DX003 (ip), vehicle: saline
[15] = dose: 400.0 mg/kg/injection, schedule: Q04DX003 (ip), vehicle: saline
[16] = dose: 100.0 mg/kg/injection, schedule: Q04DX003 (ip), vehicle: Klucel (hydroxypropylcellulose) (HPC)
[17] = dose: 200.0 mg/kg/injection, schedule: Q04DX003 (ip), vehicle: Klucel (hydroxypropylcellulose) (HPC)
[18] = dose: 400.0 mg/kg/injection, schedule: Q04DX003 (ip), vehicle: Klucel (hydroxypropylcellulose) (HPC)
[19] = dose: 100.0 mg/kg/injection, schedule: Q01DX001 (ip), vehicle: saline
[20] = dose: 200.0 mg/kg/injection, schedule: Q01DX001 (ip), vehicle: saline
[21] = dose: 400.0 mg/kg/injection, schedule: Q01DX001 (ip), vehicle: saline
[22] = dose: 25.0 mg/kg/injection, schedule: Q01DX009 (ip), vehicle: Klucel (hydroxypropylcellulose) (HPC)
[23] = dose: 50.0 mg/kg/injection, schedule: Q01DX009 (ip), vehicle: Klucel (hydroxypropylcellulose) (HPC)
[24] = dose: 100.0 mg/kg/injection, schedule: Q01DX009 (ip), vehicle: saline with Tween-80
[25] = dose: 200.0 mg/kg/injection, schedule: Q01DX009 (ip), vehicle: saline with Tween-80
[26] = dose: 25.0 mg/kg/injection, schedule: Q04DX003 (ip), vehicle: Klucel (hydroxypropylcellulose) (HPC)
[27] = dose: 50.0 mg/kg/injection, schedule: Q04DX003 (ip), vehicle: Klucel (hydroxypropylcellulose) (HPC)
[28] = dose: 100.0 mg/kg/injection, schedule: Q01DX001 (ip), vehicle: gum acacia
[29] = dose: 200.0 mg/kg/injection, schedule: Q01DX001 (ip), vehicle: gum acacia
[30] = dose: 400.0 mg/kg/injection, schedule: Q01DX001 (ip), vehicle: gum acacia
[31] = dose: 100.0 mg/kg/injection, schedule: Q01DX009 (ip), vehicle: gum acacia
[32] = dose: 200.0 mg/kg/injection, schedule: Q01DX009 (ip), vehicle: gum acacia
[33] = dose: 400.0 mg/kg/injection, schedule: Q01DX009 (ip), vehicle: gum acacia

Measured: T/C

O=C(/C=C/c1ccccc1)NC(=S)Nc1ccc(CCO)cc1
inactive: [1] 97 % of control and 111 % of control | [2] 100 % of control | dose: 100.0 mg/kg/injection, schedule: Q04DX002 (ip), vehicle: saline with Tween-80 96 % of control and 97 % of control | [3] 102 % of control | [4] 88 % of control | dose: 200.0 mg/kg/injection, schedule: Q04DX002 (ip), vehicle: saline with Tween-80 96 % of control and 101 % of control | [5] 100 % of control | [6] 90 % of control | [7] 93 % of control and 95 % of control | dose: 400.0 mg/kg/injection, schedule: Q04DX002 (ip), vehicle: saline with Tween-80 104 % of control | [8] 87 % of control

CC(C)C(C(=O)c1ccccc1)C(Cl)c1ccccc1 (configuration not stated)
inactive: [9] 94 % of control | [10] 102 % of control | [11] 93 % of control

COC(=O)C(N)Cc1ccc(O)c(O)c1 (configuration not stated)
inactive: [12] 110 % of control | [13] 102 % of control | dose: 200.0 mg/kg/injection, schedule: Q01DX009 (ip), vehicle: saline 112 % of control | [14] 98 % of control | dose: 400.0 mg/kg/injection, schedule: Q01DX009 (ip), vehicle: saline 112 % of control | [15] 102 % of control

CC(=O)ON(C(C)=O)c1ccc(S(=O)(=O)c2ccc(N(OC(C)=O)C(C)=O)cc2)cc1
inactive: [13] 97 % of control | [14] 103 % of control | [15] 103 % of control

FC(F)/C=C\c1ccccc1
inactive: dose: 75.0 mg/kg/injection, schedule: Q01DX001 (ip), vehicle: other 103 % of control | dose: 150.0 mg/kg/injection, schedule: Q01DX001 (ip), vehicle: other 105 % of control | dose: 300.0 mg/kg/injection, schedule: Q01DX001 (ip), vehicle: other 111 % of control

OC1CCCC/C1=C/c1ccccc1 (configuration not stated)
inactive: dose: 100.0 mg/kg/injection, schedule: Q01DX009 (ip), vehicle: Klucel (hydroxypropylcellulose) (HPC) 101 % of control | [16] 103 % of control | dose: 200.0 mg/kg/injection, schedule: Q01DX009 (ip), vehicle: Klucel (hydroxypropylcellulose) (HPC) 101 % of control | [17] 101 % of control | dose: 400.0 mg/kg/injection, schedule: Q01DX009 (ip), vehicle: Klucel (hydroxypropylcellulose) (HPC) 101 % of control | [18] 95 % of control

Cc1cccc2c1SCCC2=O
inactive: [19] 92 % of control | [20] 92 % of control | [21] 89 % of control

CNc1nc(Cl)cc2nc(Cl)cn12
inactive: [19] 94 % of control | [20] 96 % of control | [21] 96 % of control

CC(C)(C)OC(=O)N1Cc2cc3ccccc3nc2C1
inactive: dose: 50.0 mg/kg/injection, schedule: Q01DX009 (ip), vehicle: saline 98 % of control | [12] 94 % of control | [13] 96 % of control | [14] 100 % of control

O=C(O)COc1ccc(Cl)cc1CCl
inactive: [16] 100 % of control | [17] 98 % of control | [18] 102 % of control

CNC(=O)OCc1c(COC(=O)NC)c(-c2ccc(Cl)c(Cl)c2)n2c1CCC2
inactive: dose: 12.5 mg/kg/injection, schedule: Q01DX009 (ip), vehicle: Klucel (hydroxypropylcellulose) (HPC) 106 % of control | [22] 109 % of control | [23] 124 % of control

COc1cc(Cl)ccc1N=CC(=O)c1ccc(C)cc1
inactive: dose: 12.5 mg/kg/injection, schedule: Q04DX002 (ip), vehicle: Klucel (hydroxypropylcellulose) (HPC) 94 % of control | dose: 25.0 mg/kg/injection, schedule: Q04DX002 (ip), vehicle: Klucel (hydroxypropylcellulose) (HPC) 87 % of control | dose: 50.0 mg/kg/injection, schedule: Q04DX002 (ip), vehicle: Klucel (hydroxypropylcellulose) (HPC) 115 % of control

CC(=O)NC1C(OS(=O)(=O)c2ccc(C)cc2)C(NC(C)=O)C(OC(C)=O)C(OC(C)=O)C1OC(C)=O (configuration not stated)
inactive: [24] 102 % of control | [25] 109 % of control | [7] 100 % of control

O=C(O)CCCCNC(=O)c1ccc([N+](=O)[O-])cc1
inactive: [2] 99 % of control | [4] 94 % of control | [6] 87 % of control

CC(C)(Cc1ccc(F)cc1)NCc1ccccc1
inactive: [22] 92 % of control | [26] 101 % of control | [23] 95 % of control | [27] 103 % of control | [16] 88 % of control and 92 % of control

N#C/C(=C/c1ccc(O)cc1)C(=O)O
inactive: [16] 96 % of control | [17] 94 % of control | [18] 94 % of control

OC(CNCCc1ccccc1)COc1cccc2ccccc12 (configuration not stated)
inactive: [26] 97 % of control | [27] 95 % of control | [16] 95 % of control

CCOC(=O)N(C(=S)Nc1ccccc1)c1nc(C)cs1
inactive: [28] 100 % of control | [29] 111 % of control | [30] 97 % of control

CC1CCCCN1C(=O)Nc1cccc(C(F)(F)F)c1 (configuration not stated)
inactive: [28] 100 % of control and 103 % of control | [31] 107 % of control | dose: 100.0 mg/kg/injection, schedule: Q04DX002 (ip), vehicle: gum acacia 93 % of control | dose: 100.0 mg/kg/injection, schedule: Q04DX003 (ip), vehicle: gum acacia 100 % of control and 101 % of control | [29] 95 % of control and 105 % of control | [32] 106 % of control | dose: 200.0 mg/kg/injection, schedule: Q04DX002 (ip), vehicle: gum acacia 96 % of control and 98 % of control | dose: 200.0 mg/kg/injection, schedule: Q04DX003 (ip), vehicle: gum acacia 95 % of control | [30] 92 % of control and 102 % of control | [33] 102 % of control | dose: 400.0 mg/kg/injection, schedule: Q04DX002 (ip), vehicle: gum acacia 93 % of control and 86 % of control | dose: 400.0 mg/kg/injection, schedule: Q04DX003 (ip), vehicle: gum acacia 98 % of control and 100 % of control

CC(C(=O)O)C(NC(=O)OCc1ccccc1)C(=O)O (configuration not stated)
inactive: dose: 100.0 mg/kg/injection, schedule: Q01DX009 (ip), vehicle: other 93 % of control | [9] 99 % of control | dose: 200.0 mg/kg/injection, schedule: Q01DX009 (ip), vehicle: other 91 % of control | [10] 99 % of control | dose: 400.0 mg/kg/injection, schedule: Q01DX009 (ip), vehicle: other 98 % of control | [11] 98 % of control

NC1=NC(=S)CS1
inactive: dose: 75.0 mg/kg/injection, schedule: Q04DX003 (ip), vehicle: saline 97 % of control | dose: 150.0 mg/kg/injection, schedule: Q04DX003 (ip), vehicle: saline 94 % of control | dose: 300.0 mg/kg/injection, schedule: Q04DX003 (ip), vehicle: saline 92 % of control

CCCCOc1ccc(/C=N/NC(=O)CNC(=O)Nc2cccc(C(F)(F)F)c2)cc1
inactive: [31] 86 % of control | [32] 93 % of control | [33] 96 % of control

c1c[nH]c(N=Nc2ccc(-c3ccc(N=Nc4ncc[nH]4)cc3)cc2)n1
inactive: [1] 97 % of control | [24] 90 % of control | [25] 90 % of control

CCCC(CC)NC(N)=O (configuration not stated)
inactive: [3] 107 % of control | [5] 95 % of control | [8] 109 % of control

C=CC(=O)Nc1ccc(Cl)cc1
inactive: [26] 98 % of control | [27] 96 % of control | [16] 107 % of control and 90 % of control

O=C(O)c1ccc([N+](=O)[O-])cc1Sc1ccsc1
inactive: [19] 98 % of control | [20] 98 % of control | [21] 98 % of control
